# Test results reported in patent US7034208B1, “Ahas inhibiting herbicide resistant wheat and method for selection thereof” (BASF Aktiengellschaft, priority 1991, dated 2006).
# Where two headings read alike, the source gives them in different places.
# Experiments:
# wheat seeds = experiment: Seed soak screen (Example 1, Step 1, Experiments 1-4); format: in vivo; conditions: for seedling appearance versus controls: by three to four weeks; for herbicide concentration necessary for lethality: seed soak
# Procedure: The seeds are rinsed in sterile distilled water and then soaked in a herbicide concentration for a set period of time, as described below. Sets of twenty-five seeds are placed into 25 ml of the herbicide solution described below in a sterile 100×15 mm plastic petri dish and soaked for the designated time. The seeds are rinsed with water, dried with paper towels and planted (25 seeds/flat) approximately ½″ deep in 6×8 inch peat flats containing a moist, sterile, artificial soil, Metro Mix 350™ (Grace Company, Cambridge, Mass.). The treatments are evaluated at four weeks after treatment. The herbicides, rates and time periods evaluated are described below:
# Each treatment is replicated four times.
# Each treatment is replicated two times.
# The protocol is as described above except that 35 seeds are soaked per petri dish; 25 seeds are still planted per flat. This experiment is repeated twice.
# [1] = test system: AHAS (acetohydroxyacid synthase); experiment: AHAS Enzyme Assay I and II (M4 Plants); format: biochemical, wheat; conditions: mutant selections; level lower than that for PURSUIT
# Procedure: Enzyme Extraction: For the extraction of AHAS, 10 grams of tissue are powdered in liquid nitrogen and then homogenized in 100 mM potassium phosphate buffer (pH 7.5) containing 10 mM pyruvate, 5 mM MgCl2, 5 uM EDTA, 100 uM FAD, 1 mM valine, 1 mM leucine, 10% glycerol, and 10 mM cysteine. The homogenate is filtered through a nylon cloth (53 uM mesh) and centrifuged at 25,000 g for 20 minutes. The supernatant fraction is brought to 50% saturation with respect to (NH4)2SO4 and allowed to stand for 20-30 minutes on ice. It is then centrifuged at 25,000 g for 20 minutes and the supernatant is discarded. The ammonium sulfate pellet is dissolved in 50 mM potassium phosphate buffer (pH 7.5) containing 1 mM EDTA and 100 mM NaCl and used for the assay procedures.
# AHAS Assay: AHAS activity is measured by estimation of the product, acetolactate, after conversion by decarboxylation in the presence of acid to acetoin. Standard reaction mixtures contain the enzyme in 50 mM potassium phosphate buffer (pH 7.0) containing 100 mM sodium pyruvate, 10 mM MgCl2, 1 mM thiamine pyrophosphate, and 10 uM FAD. This mixture is incubated at 37° C. for one hour after which time the reaction is stopped with the addition of […] to make a final concentration of 0.85% […] in the tube. The reaction product is allowed to decarboxylate at 60° C. for 15 minutes. The acetoin formed is determined by incubating with creatine (0.17%) and 1-napthol (1.7% in 4N NaOH) by the method of Westerfield (Westerfield, W. W., J. Biol. Chem., 161, 495-502 (1945)). Maximum color is observed by incubation at 60° C. for 15 minutes and then further incubation at room temperature for 15 minutes. The absorption of color complex is measured at 520 nm. Appropriate checks of direct acetoin formation during the enzyme assay are made. Each assay is run at least in duplicate and the experiments are repeated a minimum of two times.
# Herbicide Application: Two flats are planted with approximately 100 seeds of each wheat selection (FS1, FS2, and FS4) and Fidel in sterile Metro Mix 350. Ten days later, each flat is sprayed postemergence with 62.5 g/ha of PURSUIT™. The spray delivery rate is 400 L/ha with a belt speed of 8.2 sec/rev using nozzle #65015E. Tween 20™ is used as a surfactant at 0.25% v/v. The plants are harvested three days later and assayed for AHAS activity.
# Enzyme Extraction and AHAS Assay: As previously described.
# Herbicide Application: As described above (Enzyme Assay I) except that the spray delivery rate is 950 l/ha with a belt speed of 12.8 sec/rev using nozzle #40015E.
# [2] = test system: wheat selection FS4 and Fidel; experiment: Field Trial II; format: in vivo; conditions: for effect on final plant height: resistant selection FS4, postemergent, six weeks after treatment
# [3] = test system: mutant wheat selection FS2 and Fidel; experiment: M3-M4 Wheat Herbicide Resistance Spectrum; format: in vivo; conditions: FS2 versus Fidel; postemergence
# Excerpt: In this experiment, the tolerance of imidazolinone-resistant wheat to three sulfonylurea herbicides (BEACON™, CLASSIC™ and OUST™ (BEACON™ is a registered trademark of Ciba-Geigy and is 2-[4,6-bis-(difluoro-methoxy)-pyrimidin-2-ylcarbamoylsulfamoyl]benzoic acid; CLASSIC™ is a registered trademark of E.I. du Pont de Nemours and Company and is the ethyl ester of o-[[(4-chloro-6-methoxy-2-pyrimidinyl)-carbamoyl]-sulfamoyl]-benzoic acid), a sulfamoylurea herbicide (Compound 3), a sulfonylcarboxamide (Compound 1), and an imidazolinone herbicide (Compound 7, which is 3-(4-isopropyl-4-methyl-5-oxo-2-imidazolin-2-yl)-2-methyl-crotonic acid), is examined to look for cross-tolerance to AHAS-inhibiting herbicides other than the imidazolinones. […] Each treatment consists of three replicates. In addition, there are six replicates each of FS2 and Fidel which are used as untreated controls. Plants are sprayed postemergence, 7 days after planting, with the following herbicides and rates:
# The herbicides are applied as previously described. Plants are rated at two, three and four weeks after treatment with herbicide.
# [4] = test system: wheat seed of the susceptible cultivar Fidel; experiment: Pre-emergence herbicide application, rate finding; format: in vivo; conditions: visual toxicity after three to four weeks
# Procedure: A series of experiments is performed to determine the appropriate herbicide rate for this pre-emergent spray treatment. Wheat seed of the susceptible cultivar Fidel is planted in Metro Mix 350™ in 6×8 inch peat flats at a rate of 100 seeds per flat. The flats are watered prior to herbicide treatment. Three flats are sprayed per treatment. The herbicides are applied with a laboratory belt sprayer at a rate of 950 liters per hectare (L/ha) at a belt speed of 12.8 sec/rev using sprayer nozzle #40015E (Teejet™ Spraying Systems). After three to four weeks, the treatments are evaluated by visual observation for toxicity to the wheat seeds/seedlings.
# [5] = test system: mutant wheat selections FS1-FS4 and Fidel; format: in vivo
# Excerpt: This greenhouse test examines the level and spectrum of herbicide resistance of the mutant selections at the whole plant level. […] These lines are bulked according to their parental lines: FS1, FS2, FS3 and FS4. Fidel (wild-type) is used is a control and for performance comparison purposes. Five seeds from each of these lines (including Fidel) are planted per pot in six inch Azalea pots and are later thinned to three plants per pot. Three replicates are used per treatment (chemical and rate) for each line, and six replicates per wheat line are used as untreated controls. Plants are sprayed postemergence, 10 days after planting, with the following herbicides and rates: […]
# [6] = test system: wheat variety Fidel and resistant selections FS2 and FS4; experiment: Preemergence Herbicide Tolerance; format: in vivo; conditions: pre-emergence application; plant growth after four weeks; versus Fidel
# [7] = test system: wheat selections FS2 and FS4 and Fidel; experiment: Postemergence Herbicide Tolerance, upper limits; format: in vivo; conditions: four weeks after treatment
# Excerpt: In this second greenhouse test, the upper limits of the mutant selections' resistance to postemergent applications of PURSUIT™ and Compound 2 are examined. M4 seed of two of the mutant selections, FS2 and FS4, and seed of Fidel are used in this experiment. Five seeds from each line are planted per pot in sterile Metro Mix 350™ in six inch Azalea pots. Immediately prior to herbicide treatment, these plants are thinned to three plants per pot. Three replicates are used per treatment (chemical & rate) for each line, and six replicates per wheat line are used as untreated controls. The plants are sprayed postemergence, 10 days after planting, with the following herbicides and rates (g/ha):
# The herbicides are applied as previously described. Plant height is measured immediately prior to spraying. Plant heights are also measured at two and four weeks after treatment, and shoot fresh weights measured at seven weeks after treatment.
# [8] = test system: mutant wheat selection FS2 and Fidel; conditions: FS2 versus Fidel; postemergence
# Excerpt: In a second experiment, the mutant wheat selection, FS2, from bulked M3-M4 seed, and Fidel seed are planted in 6″ Azalea pots in sterile Metro Mix 350™. Three seeds are planted per pot initially; these are subsequently thinned to two plants. There are three replicates of each treatment. In addition, the untreated controls consist of 15 replicates each of Fidel and FS2. Plants are sprayed postemergence, 12 days after planting, with the following herbicides and rates: […]
# [9] = mutant wheat FS1-FS4, postemergence, plant growth four weeks after treatment
structure (smiles),measurement,setting,value
"CC(C)C1(C)N=C(c2nc3ccccc3cc2C(=O)O)NC1=O (centres unmarked) [SCEPTER, 2-(4-isopropyl-4-methyl-5-oxo-2-imidazolin-2-yl)-3-quinolinecarboxylic acid]",seedling appearance versus controls,wheat seeds; seed soak 500 uM for 48 hours,slightly shorter than controls
same,seedling appearance versus controls,wheat seeds; seed soak 1-100 uM for 48 hours,indistinguishable from controls
same,prevention of escapes (false positives),"wheat seeds; seed soak maximum 1000 uM for 48 hours, Experiment 2",still not high enough to prevent “escapes”
same,resistance of AHAS activity to inhibition,[1],Some resistance
"Cc1cnc(C2=NC(C)(C(C)C)C(=O)N2)c(C(=O)O)c1 (centres unmarked) [CADRE, 2-(4-isopropyl-4-methyl-5-oxo-2-imidazolin-2-yl)-5-methylnicotinic acid]",effect on final plant height,[2],no effect
"COc1cc(OC)nc(NC(=O)NS(=O)(=O)c2ncccc2C(=O)N(C)C)n1 [ACCENT, 1-(4,6-dimethoxypyrimidin-2-yl)-3-(3-dimethylcarbamoyl-2-pyridylsulfonyl)urea]",cross resistance,"[2]; FS4, after three weeks",no cross resistance
same,tolerance of the resistant wheat,"[2]; FS4, postemergent 20 and 40 g/ha",little or no tolerance
same,grain yield,"[2]; both the resistant and susceptible Fidel, yields 10 weeks after treatment",little or no grain yield
"COC(OC)c1cnc(C2=NC(C)(C(C)C)C(=O)N2)c(C(=O)O)c1 (centres unmarked) [Compound 8, 5-formyl-2-(4-isopropyl-4-methyl-5-oxo-2-imidazolin-2-yl)-nicotinic acid, 5-(dimethylacetal)]",effect on final plant height,[2],no effect
"C/C(C(=O)O)=C(\C)C1=NC(C)(C(C)C)C(=O)N1 (centres unmarked) [Compound 7, 3-(4-isopropyl-4-methyl-5-oxo-2-imidazolin-2-yl)-2-methyl-crotonic acid]",resistance,[3],greater than 10 fold
"CC(C)C1(C)N=C(c2ncccc2C(=O)O)NC1=O (centres unmarked) [ARSENAL, 2-(4-isopropyl-4-methyl-5-oxo-2-imidazolin-2-yl)-nicotinic acid]",effect on seed germination and seedling growth,"wheat seeds; seed soak 1-500 uM for 48 hours, Experiment 1",inhibits seed germination and seedling growth with increasing concentration
same,seedling growth,wheat seeds; seed soak 100 and 500 uM for 48 hours,totally inhibit seedling growth
same,herbicide concentration necessary for lethality,wheat seeds; exposure greater than 72 hours,50 µM
same,herbicide concentration necessary for lethality,wheat seeds; length of exposure less than 72 hours,75 µM
same,"most effective rate, pre-emergent spray",[4],40-50 g/ha
same,rate to which the mutant wheat is resistant,[5]; [9],more than 48 g/ha
same,increased tolerance of FS2 and FS4,[6],approximately 8 fold
"COCc1cnc(C2=NC(C)(C(C)C)C(=O)N2)c(C(=O)O)c1 (centres unmarked) [Compound 2, 2-(4-isopropyl-4-methyl-5-oxo-2-imidazolin-2-yl)-5-(methoxymethyl)-nicotinic acid]",rate to which the mutant wheat is resistant,[5]; [9],more than 80 g/ha
same,increased tolerance of mutant wheat,"[5]; mutant wheat FS1-FS4 versus Fidel, postemergence, four weeks after treatment",~16 fold
same,rates up to which FS2 and FS4 plant heights equal the untreated controls,[7],25-50 g/ha
same,effect on final plant height,[2],no effect
"CC(=O)NC(C)(C(=O)NS(=O)(=O)c1ccc(Cl)cc1)C(C)C (centres unmarked) [Compound 1, 2-acetamido-N-[(p-chlorophenyl)sulfonyl]-2,3-dimethyl-butyramide]",inhibitory effect on seed germination or seedling growth,"wheat seeds; seed soak 500-2000 uM for 48, 72 or 96 hours",does not have an inhibitory effect on either seed germination or seedling growth
"COC(=O)c1ccccc1S(=O)(=O)NC(=O)Nc1nc(C)cc(C)n1 [OUST, methyl ester of o-[[3-(4,6-dimethylpyrimidin-2-yl)ureido]sulfonyl]-benzoic acid]",increased tolerance of mutant wheat,[5]; in vivo,~2 fold
same,rate to which the mutant wheat is resistant,[5]; in vivo,more than 5 g/ha
same,increased tolerance of the resistant wheat,[8],2-4 fold
same,resistance of AHAS activity to inhibition,[1],Some resistance
